Measurements taken from ChEMBL document CHEMBL1156861, “Synthesis and structure-activity relationship of substitutions at the C-1 position of Delta9-tetrahydrocannabinol” (Bioorg Med Chem Lett, 2010).
pKi: −log10 of the molar value.

Legend:
[1] = Selectivity ratio of Ki for CB1 receptor to Ki for CB2 receptor
Cannabinoid receptor 1 = Cannabinoid receptor 1 (Homo sapiens, UniProt P21554); experiment: Displacement of [3H]CP-55940 from CB1 receptor
Cannabinoid receptor 2 = Cannabinoid receptor 2 (Homo sapiens, UniProt P34972); experiment: Displacement of [3H]CP-55940 from CB2 receptor
Chain of Cannabinoid receptor 2 (P34972 whole entry): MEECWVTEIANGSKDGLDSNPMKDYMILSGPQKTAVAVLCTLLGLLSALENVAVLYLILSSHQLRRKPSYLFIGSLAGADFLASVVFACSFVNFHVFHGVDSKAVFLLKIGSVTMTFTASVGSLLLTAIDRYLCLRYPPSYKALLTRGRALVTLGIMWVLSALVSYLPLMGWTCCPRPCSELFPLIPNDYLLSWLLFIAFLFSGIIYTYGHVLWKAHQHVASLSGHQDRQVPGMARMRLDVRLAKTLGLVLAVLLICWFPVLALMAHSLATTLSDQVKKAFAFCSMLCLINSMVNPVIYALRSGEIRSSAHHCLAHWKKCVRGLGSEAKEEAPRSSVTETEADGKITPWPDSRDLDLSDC

Chain of Cannabinoid receptor 1 (P21554 whole entry): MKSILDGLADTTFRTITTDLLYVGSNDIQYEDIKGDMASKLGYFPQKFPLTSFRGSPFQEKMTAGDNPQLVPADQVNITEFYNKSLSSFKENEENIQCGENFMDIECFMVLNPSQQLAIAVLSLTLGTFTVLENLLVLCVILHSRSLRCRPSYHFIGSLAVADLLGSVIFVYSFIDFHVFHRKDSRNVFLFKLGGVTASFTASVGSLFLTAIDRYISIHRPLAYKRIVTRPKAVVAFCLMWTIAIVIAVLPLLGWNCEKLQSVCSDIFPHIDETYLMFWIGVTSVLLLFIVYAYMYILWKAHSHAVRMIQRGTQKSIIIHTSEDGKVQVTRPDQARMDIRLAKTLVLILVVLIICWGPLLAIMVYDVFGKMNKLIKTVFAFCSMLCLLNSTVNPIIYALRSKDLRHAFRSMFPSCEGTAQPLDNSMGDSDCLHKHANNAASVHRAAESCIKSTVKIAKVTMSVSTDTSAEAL

Structure (SMILES)	Ratio Ki [1]	pKi (Cannabinoid receptor 1)	pKi (Cannabinoid receptor 2)
CCCCCCC(C)(C)c1cc(O)c2c(c1)OC(C)(C)[C@@H]1CCC(C)=C[C@@H]21	1	9.62	9.70
CCCCCc1cc2c(c(C(=O)NCC(N)=O)c1)[C@@H]1C=C(C)CC[C@H]1C(C)(C)O2		< 5.52	< 5.52
CCCCCc1cc(N)c2c(c1)OC(C)(C)[C@@H]1CCC(C)=C[C@@H]21	3	6.21	6.67
CCCCCc1cc2c(c(C(=O)N(C)C)c1)[C@@H]1C=C(C)CC[C@H]1C(C)(C)O2		< 5.52	5.92
CCCCCc1cc2c(c(SC)c1)[C@@H]1C=C(C)CC[C@H]1C(C)(C)O2	2	6.02	6.33
CCCCCc1cc2c(c(C(=O)NC)c1)[C@@H]1C=C(C)CC[C@H]1C(C)(C)O2		< 5.52	5.90
CCCCCc1cc(C#N)c2c(c1)OC(C)(C)[C@@H]1CCC(C)=C[C@@H]21	3	5.76	6.41
CCCCCCC(C)(C)c1cc(NS(C)(=O)=O)c2c(c1)OC(C)(C)[C@@H]1CCC(C)=C[C@@H]21	7	5.74	6.59
CCCCCc1cc2c(c(C(N)=O)c1)[C@@H]1C=C(C)CC[C@H]1C(C)(C)O2		< 5.52	5.66
CCCCCc1cc(NC(N)=O)c2c(c1)OC(C)(C)[C@@H]1CCC(C)=C[C@@H]21		< 5.52	< 5.52
CCCCCCC(C)(C)c1cc(N)c2c(c1)OC(C)(C)[C@@H]1CCC(C)=C[C@@H]21	4	7.93	8.54
CCCCCCC(C)(C)c1cc(C#N)c2c(c1)OC(C)(C)[C@@H]1CCC(C)=C[C@@H]21	13	7.17	8.28
CCCCCc1cc(NC(=O)CN(C)C)c2c(c1)OC(C)(C)[C@@H]1CCC(C)=C[C@@H]21		< 5.52	< 5.52
CCCCCCC(C)(C)c1cc(NC(=O)NC)c2c(c1)OC(C)(C)[C@@H]1CCC(C)=C[C@@H]21	1	6.48	6.59
CCCCCc1cc(NC(C)=O)c2c(c1)OC(C)(C)[C@@H]1CCC(C)=C[C@@H]21		< 5.52	5.85
CCCCCc1cc(NC(=O)OC)c2c(c1)OC(C)(C)[C@@H]1CCC(C)=C[C@@H]21		< 5.52	5.85
CCCCCc1cc(NS(C)(=O)=O)c2c(c1)OC(C)(C)[C@@H]1CCC(C)=C[C@@H]21		< 5.52	5.76
CCCCCc1cc(CNS(C)(=O)=O)c2c(c1)OC(C)(C)[C@@H]1CCC(C)=C[C@@H]21		< 5.52	< 5.52
CCCCCc1cc2c(c([S+](C)[O-])c1)[C@@H]1C=C(C)CC[C@H]1C(C)(C)O2 (single isomer, unassigned; diastereomer A)		< 5.52	5.71
CCCCCCC(C)(C)c1cc(NC(=O)c2ccncc2)c2c(c1)OC(C)(C)[C@@H]1CCC(C)=C[C@@H]21	> 3	< 5.52	5.96
CCCCCc1cc(CNC(C)=O)c2c(c1)OC(C)(C)[C@@H]1CCC(C)=C[C@@H]21		< 5.52	5.82
CCCCCc1cc(NC(=O)c2ccncc2)c2c(c1)OC(C)(C)[C@@H]1CCC(C)=C[C@@H]21		< 5.52	5.75
CCCCCc1cc2c(c([S+](C)[O-])c1)[C@@H]1C=C(C)CC[C@H]1C(C)(C)O2 (single isomer, unassigned; diastereomer B)		< 5.52	< 5.52
CCCCCc1cc(CNC(N)=O)c2c(c1)OC(C)(C)[C@@H]1CCC(C)=C[C@@H]21		< 5.52	6.11
CCCCCc1cc2c(c(C(=O)NC(CO)CO)c1)[C@@H]1C=C(C)CC[C@H]1C(C)(C)O2		< 5.52	5.70
CCCCCc1cc(NC(=O)NC)c2c(c1)OC(C)(C)[C@@H]1CCC(C)=C[C@@H]21		< 5.52	5.69
CCCCCc1cc2c(c(C(=O)O)c1)[C@@H]1C=C(C)CC[C@H]1C(C)(C)O2		< 5.52	< 5.52
CCCCCCC(C)(C)c1cc(NC(C)=O)c2c(c1)OC(C)(C)[C@@H]1CCC(C)=C[C@@H]21	6	5.87	6.67
CCCCCc1cc(CN)c2c(c1)OC(C)(C)[C@@H]1CCC(C)=C[C@@H]21		< 5.52	< 5.52
CCCCCc1cc2c(c(N(C)C)c1)[C@@H]1C=C(C)CC[C@H]1C(C)(C)O2		< 5.52	< 5.52
